# Experimental data reported in patent US11173116B2, “Drug delivery system kit comprising an enzyme” (INDUSTRY-ACADEMIC COOPERATION FOUNDATION, YONSEI UNIVERSITY, priority 2018, dated 2021).
# Structures can show the parent of a compound that is named as a salt.
# Tested on: HeLa cells
# Assay: Cytotoxicity test, MTT assay
# Assay type: cell-based
# Details: amount of 1 μg
# Description: HeLa cells were cultured for 2 to 3 days in a 100 mm culture dish (SPL, Pocheon-si, Korea) in a 5% CO2 incubator. When 95% of the cells were grown, the cells were detached by trypsin-EDTA treatment. Thereafter, for a toxicity test, the cells were inoculated at a density of 7,000 cells/well in a 24-well plate. For cell attachment, the cells were cultured for one day, and for cytotoxicity and anticancer assays, the enzyme, DOX, and DOX-free hollow drug delivery system in the culture medium were used to treat the cells separately. After the materials were cultured for one day, the cytotoxicity was measured using a 3-(4,5-dimethylthiazol-2-yl)-2,5-diphenyltetrazolium bromide (MTT) assay. An MTT solution (5 mg/mL) in PBS was used to treat the cells for 2 hours in an incubator, the cells were dissolved in DMSO, and the absorbance at a wavelength of 540 nm was measured using a plate reader (SpectraMax 340 PC; Molecular Devices, Sunnyvale, Calif., USA).
# The anticancer effect of the DOX-conjugated drug delivery system was investigated through a cytotoxicity test. In this case, 1 μg of the DOX-conjugated hollow drug delivery systems of Preparation Examples 4 and 5 were used. A cell culture medium was composed of 90% Dulbecco's Modified Eagle Medium, 10% fetal bovine serum, and 1% penicillin-streptomycin-glutamine. […]
smiles,measurement,value
"COc1cccc2c1C(=O)c1c(O)c3c(c(O)c1C2=O)C[C@@](O)(C(=O)CO)C[C@@H]3O[C@H]1C[C@H](N)[C@H](O)[C@H](C)O1 [DOX, doxorubicin hydrochloride]",cytotoxicity,very high toxicity
